Test results: patent publication US20050234073A1, “Methods of inhibiting inflammation” (priority 2003, published 2005)

Experiments:
splenocytes = experiment: Splenocyte / CD11c+ dendritic cell CD1d-restricted presentation to DN32 and 24.8 NKT cells (IL-2 ELISA); format: cell-based, mouse
Protocol: FIG. 17B is a series of bar charts showing IL-2 production of splenocytes isolated from wild type mice in the presence or absence of exogenous antigens. Splenocytes were incubated for 24 hours with BMS212122 and washed. Exogenous antigens ovalbumin or α-galcer was added as indicated. Splenocytes were then co cultured with: CD4^+ cells from an OT-II transgenic mouse (left); DN32 NKT cells (center); or autoreactive 24.8 NKT cells (right). IL-2 concentrations were measured by ELISA of 40 hour culture supernatants. *, p<0.05.
FIG. 17C is a bar chart showing IL-2 production of splenocytes or bone marrow derived dendritic cells co cultured with 24.8 NKT cells and incubated for 24 hours with BMS212122. Anti-CD1d mAb 1B1 or an isotype control was added as indicated. IL-2 concentrations were measured by ELISA of 40 hour culture supernatants. (nd=not detected) *, p<0.02.
(§1) APCs were incubated with 100 ng/mL α-galcer (kindly provided by Dr. H. Ploegh) for 3 hours, washed three times in PBS and aliquoted into a 96 well plate at 10^6 cells/mL. DN32 cells were added at 1:1 E:T ratio unless otherwise indicated. CD4^+ cells were isolated from spleens of OT-II transgenic mice using positive selection on CD4 magnetic beads (Miltenyi Biotec) and incubated with APCs and 100 μg/mL ovalbumin. […] Mouse IL-2 production was assessed by ELISA (OptEIA, BD PharMingen) of 24 or 40 hour culture supernatants. […]

BMDCs = experiment: Bone marrow derived dendritic cell presentation to 24.8 and DN32 NKT cells (IL-2 ELISA); format: cell-based, mouse; conditions: BMDCs cultured with inhibitor from day 6 to day 10
Protocol: FIG. 17D is a line graph showing IL-2 production in bone marrow derived dendritic cells incubated for 4 days with BMS212122 (◯) or vehicle (●) were treated with α-galcer for 3 hours, washed and co cultured with DN32. IL-2 concentrations were measured by ELISA of 24 hour culture supernatants. *, p<0.01.
as §1
Bone marrow was extracted from the femurs of C57BL6 or MTPmx1cre mice, washed once in PBS and resuspended in R10 supplemented with culture supernatant from murine GM-CSF transfected cells for a final concentration of 200 U/mL GM-CSF. […] Differentiated cells were harvested by gentle pipetting, washed in PBS, and analyzed by flow cytometry for surface expression of CD11c and I-A^b. […] After 5 days cells were dislodged by gentle pipetting, analyzed by flow cytometry and assayed for antigen presentation. […]

SMILES: Cc1ccc2c(nc(C)n2CCCCC2(C(=O)NCC(F)(F)F)c3ccccc3-c3ccccc32)c1NC(=O)c1ccccc1-c1ccc(C(F)(F)F)cc1 [BMS212122, 9-[4-[2,5-Dimethyl-4-[[[4′-(trifluoromethyl)[1,1′-biphenyl]-2-yl]carbonyl]amino]-1H-benzimidazol-1-yl]butyl]-N-(2,2,2-trifluoroethyl)-9H-fluorene-9-carboxamide]
- effect on presentation of an endogenous ligand to 24.8 NKT cells (splenocytes; CD11c-positive dendritic cell population from splenocytes): highly pronounced
- ability to present exogenous and endogenous CD1d-restricted antigens (splenocytes; splenocytes incubated 24 hours with inhibitor prior to addition of NKT cells): reduced
- presentation of α-galcer to DN32 cells (BMDCs): significant effect
